Reference: patent publication US20160243190A1, “DOSES AND METHODS FOR ADM[…]” (THERAVANCE BIOPHARMA A[…], LLC, priority 2015, published 2016)
Where two headings read alike, the source gives them in different places.

Tests used:
[1] = Logistic regression of outcomes as a function of steady state exposure (AUC0-24h) in Phase 3 subjects; type: in vivo, human
Protocol: Logistic regression analysis was used to parameterize the relationship between exposure (AUC0-24h) and the probability of 28-day all-cause mortality, AKI (defined as a 50% increase or greater than 0.5 mg/dL increase in serum creatinine) and clinical response at test of cure (TOC) for all Phase 3 subjects. The analysis was repeated for the individual HABP/VABP and cSSSI subpopulations.
Logistic regression analyses were conducted on the Phase 3 dataset using individually predicted exposure (AUC0-24h) and the outcomes of interest (28-day all-cause mortality, AKI, and clinical response at TOC). The analysis was performed using the generalized linear model function in R specifying a binomial variance and the logit link function.
The output produced for each logistic regression analysis includes indices of fit (i.e., null and deviance residuals, Akaike's information criterion and likelihood ratio test statistics to provide an assessment of model improvement as additional parameters are included in the model).

[2] = Population PK model for telavancin from Phase 1, 2 and 3 plasma concentrations; type: in vivo; conditions: both sexes, human, intravenous, final combined population PK model, read-out: CL, population estimate ± SE (converted)
[3] = Observed outcomes in Phase 3 HABP/VABP and cSSSI studies 0015, 0017, 0018, 0019; type: in vivo, human
Description: The data for the simulations was based on 1771 subjects from Studies 0015, 0017, 0018 and 0019.
The data for the analysis was based upon 579 subjects from Studies 0015, 0017, 0018 and 0019. […]

[4] = CART (classification and regression tree) analysis of exposure and 28-day mortality; type: in vivo, human; conditions: HABP/VABP subjects with renal impairment
Protocol: Values were determined for each simulated clinical trial (n=100), and presented as a mean and standard deviation.
The logistic regression analysis in HABP/VABP subjects with impaired renal function (CrCl≦50 mL/min) is consistent with the results of the CART analysis in HABP/VABP subjects with renal impairment.

[5] = Individually predicted steady state exposure in Phase 3 subjects with PK samples; type: in vivo; conditions: human, plasma, intravenous
Protocol: This analysis was designed to describe the relationship between exposure and response in patients treated with telavancin.
The predicted telavancin PK profiles for each subject were generated using the individually estimated PK parameters determined during the population PK analysis based on the administered dose as recorded in the dataset. The individually estimated PK parameters for each subject were determined based upon the specific intra- and inter-individual errors determined using nonlinear mixed effect analysis.

[6] = Phase 3 HABP/VABP subjects with PK samples, n=196
[7] = Phase 3 Total with PK samples, n=579
[8] = Phase 3 all-treated HABP/VABP subjects, n=750
[9] = Phase 3 all-treated Total, n=1771
[10] = Phase 3 all-treated cSSSI subjects, n=1021
[11] = Phase 3 cSSSI subjects with PK samples, n=383

CCCCCCCCCCNCCNC1(C)CC(OC2C(Oc3c4cc5cc3Oc3ccc(cc3Cl)[C@@H](O)[C@@H](NC(=O)[C@@H](CC(C)C)NC)C(=O)N[C@@H](CC(N)=O)C(=O)N[C@H]5C(=O)N[C@H]3C(=O)N[C@H](C(=O)N[C@H](C(=O)O)c5cc(O)c(CNCP(=O)(O)O)c(O)c5-c5cc3ccc5O)[C@H](O)c3ccc(c(Cl)c3)O4)OC(CO)C(O)C2O)OC(C)C1O (stereo partly shown) [telavancin, N^3″-[2-(decylamino)ethyl]-29-[[(phosphonomethyl)amino]methyl]vancomycin]
Steady State AUC0-24 h coefficient, Estimate; clinical response at TOC ([1]; all HABP/VABP subjects): 4.50e−4 | Steady State AUC0-24 h coefficient, Pr(>|z|); clinical response at TOC ([1]; all HABP/VABP subjects): 0.495 | Steady State AUC0-24 h coefficient, Estimate; clinical response at TOC ([1]; all Phase 3 subjects): 4.29e−3 | Steady State AUC0-24 h coefficient, Pr(>|z|); clinical response at TOC ([1]; all Phase 3 subjects): 0.368 | Steady State AUC0-24 h coefficient, Estimate; clinical response at TOC ([1]; all cSSSI subjects): 4.11e−4 | Steady State AUC0-24 h coefficient, Pr(>|z|); clinical response at TOC ([1]; all cSSSI subjects): 0.557 | clearance [2]: 19.2 mL/min | AKI, Y (number of subjects) [3, 6]: Y = 39, N = 157 | CURE (number of subjects) [3, 6]: CURE = 127, | MORTALITY, Y (number of subjects) [3, 6]: Y = 45, N = 151 | AKI, Y (number of subjects) [3, 7]: Y = 78, N = 500, | CURE (number of subjects) [3, 7]: CURE = 449, | MORTALITY, Y (number of subjects) [3, 7]: Y = 46, N = 533 | AKI, Y (number of subjects) [3, 8]: Y = 171, N = 542, | CURE (number of subjects) [3, 8]: CURE = 442, | MORTALITY, Y (number of subjects) [3, 8]: Y = 178, N = 572, | AKI, Y (number of subjects) [3, 9]: Y = 291, N = 1413, | CURE (number of subjects) [3, 9]: CURE = 1230, | MORTALITY, Y (number of subjects) [3, 9]: Y = 187, N = 1584 | AKI, Y (number of subjects) [3, 10]: Y = 120, N = 871, | CURE (number of subjects) [3, 10]: CURE = 788, | MORTALITY, Y (number of subjects) [3, 10]: Y = 9, N = 1012, | AKI, Y (number of subjects) [3, 11]: Y = 39, N = 343, | CURE (number of subjects) [3, 11]: CURE = 322, | predicted exposure with greater likelihood of 28-day mortality (CART cutpoint) [4]: greater than 767 μg·hr/mL | AUC0-24 at steady state ([5]; HABP/VABP subjects, n=196, read-out: AUC0-24, mean ± SD (range)): 670 ± 231 µg·h/mL | AUC0-24 at steady state ([5]; Total, n=579, read-out: AUC0-24, mean ± SD (range)): 671 ± 214 µg·h/mL | AUC0-24 at steady state ([5]; cSSSI subjects, n=383, read-out: AUC0-24, mean ± SD (range)): 671 ± 206 µg·h/mL
